According to patent publication US10000535B2, “Template-fixed peptidomimetics” (POLYPHOR LTD., priority 2007, dated 2018):
Non-standard residues stand in square brackets, D forms with d. Residues, ends and D or L forms follow the SMILES beside them. Aze = O=C(O)[C@@H]1CCN1

What was measured:
Format in all cases: cell-based
human CXCR3 = target: T1, human CXCR3 (Homo sapiens, UniProt P49682); assay: Calcium flux antagonism assay with human CXCL10; settings: 300-19 cells with human CXCR3, read-out: IC50% (μM) ± SD, CXCR3 receptor
T1 construct: expressed in transfected cells; host or cells: mouse pre-B cell line 300-19
T1 sequence (P49682 1-368): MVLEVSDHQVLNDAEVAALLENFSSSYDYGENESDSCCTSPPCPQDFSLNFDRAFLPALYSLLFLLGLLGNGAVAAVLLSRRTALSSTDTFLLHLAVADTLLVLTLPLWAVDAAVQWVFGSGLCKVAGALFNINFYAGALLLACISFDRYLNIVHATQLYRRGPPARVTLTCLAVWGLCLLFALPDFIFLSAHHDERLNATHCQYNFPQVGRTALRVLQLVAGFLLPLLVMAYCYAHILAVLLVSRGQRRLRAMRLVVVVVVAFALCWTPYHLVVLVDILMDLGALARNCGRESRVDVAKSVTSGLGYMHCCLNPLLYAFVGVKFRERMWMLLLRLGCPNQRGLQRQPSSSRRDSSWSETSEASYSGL
Method: The mouse pre-B cell line 300-19 was stably transfected with the cDNA encoding the human UTR2 receptor (GenBank Acc#NM_018949), and expression was confirmed with a positive calcium signal in response to human urotensin (Sigma Aldrich). Increases in intracellular calcium were monitored using a Flexstation 384 (Molecular Devices, Sunnyvale, Calif.). The cells were batch loaded with the Calcium 3 Assay kit (Molecular Devices) in assay buffer (Hanks Balanced salt solution, HBSS, 20 mM HEPES, pH 7.4, 0.1% BSA) for 1 h at room temperature and labeled cells were dispensed into either black 96 well or 384 well assay plates (Greiner). Calcium mobilization induced by urotensin or compounds was measured in the Flexstation 384 (excitation, […]) for 70 seconds. Agonist activity was determined by direct addition of ligand or peptides, while antagonists were identified by pre-incubation of compounds with cells prior to urotensin addition. A dose response curve (compound concentration versus % maximum response for urotensin) was determined for each active agonist and antagonist and was fitted to a four parameter logistic equation using SoftmaxPro 4.6 (Molecular Devices), from which EC50% and IC50% values were calculated. […]

CCR4 = target: T2, CCR4 (Homo sapiens, UniProt P51679); assay: Selectivity calcium flux assay, chemokine receptor panel; settings: at 10 μM
T2 sequence (P51679 1-360): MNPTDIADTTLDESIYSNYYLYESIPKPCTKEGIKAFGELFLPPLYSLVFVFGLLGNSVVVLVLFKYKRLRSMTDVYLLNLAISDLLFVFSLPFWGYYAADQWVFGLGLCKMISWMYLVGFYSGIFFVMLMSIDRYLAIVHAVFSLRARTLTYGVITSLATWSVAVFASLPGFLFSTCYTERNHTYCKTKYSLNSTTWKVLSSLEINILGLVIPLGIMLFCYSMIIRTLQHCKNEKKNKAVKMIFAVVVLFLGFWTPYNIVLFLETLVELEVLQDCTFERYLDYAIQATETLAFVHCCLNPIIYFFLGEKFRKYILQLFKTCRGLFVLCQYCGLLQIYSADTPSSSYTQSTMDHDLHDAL
Method: (§1) Selectivity was measured using the calcium flux assay on a panel of human chemokine receptor bearing cell lines (CCR1, CCR2, CCR3, CCR4, CCR5, CCR6, CCR7, CCR8, CCR9, CCR10, CXCR1, CXCR2, CXCR2, CXCR4, CXCR6 and CXCCR1) using the same method as above

CCR7 = target: T3, CCR7 (Homo sapiens, UniProt P32248); assay: as above; settings: at 10 μM
T3 sequence (P32248 25-378): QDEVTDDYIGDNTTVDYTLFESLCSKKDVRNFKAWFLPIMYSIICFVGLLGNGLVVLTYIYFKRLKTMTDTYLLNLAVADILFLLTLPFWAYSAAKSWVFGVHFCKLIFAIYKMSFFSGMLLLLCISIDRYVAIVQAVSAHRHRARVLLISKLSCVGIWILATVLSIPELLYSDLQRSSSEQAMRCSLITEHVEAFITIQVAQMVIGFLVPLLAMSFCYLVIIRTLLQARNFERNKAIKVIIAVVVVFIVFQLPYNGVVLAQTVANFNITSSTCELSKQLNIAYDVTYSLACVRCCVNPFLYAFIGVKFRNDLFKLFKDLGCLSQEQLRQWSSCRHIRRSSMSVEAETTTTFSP
Method: as §1

CCR9 = target: T4, CCR9 (Homo sapiens, UniProt P51686); assay: as above; settings: at 10 μM
T4 sequence (P51686 1-369): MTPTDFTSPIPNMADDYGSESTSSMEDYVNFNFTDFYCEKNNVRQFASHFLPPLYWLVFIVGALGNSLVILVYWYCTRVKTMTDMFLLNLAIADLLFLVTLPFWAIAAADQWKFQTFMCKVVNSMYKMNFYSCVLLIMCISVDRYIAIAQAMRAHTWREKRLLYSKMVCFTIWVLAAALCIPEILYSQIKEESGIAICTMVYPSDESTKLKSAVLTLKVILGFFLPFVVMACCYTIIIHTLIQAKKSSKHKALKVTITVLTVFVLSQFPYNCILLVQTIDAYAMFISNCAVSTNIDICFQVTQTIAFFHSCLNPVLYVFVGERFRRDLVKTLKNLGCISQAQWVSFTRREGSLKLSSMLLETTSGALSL
Method: as §1

CXCR6 = CXCR6 (Homo sapiens, UniProt O00574); assay: as above; settings: at 10 μM
Method: as §1

human CCR10 = target: T5, human CCR10 (Homo sapiens, UniProt P46092); assay: Calcium flux antagonism assay with human CCL27; settings: at 10 μM
T5 construct: expressed in transfected cells; host or cells: mouse pre-B cell line 300-19
T5 sequence (P46092 1-362): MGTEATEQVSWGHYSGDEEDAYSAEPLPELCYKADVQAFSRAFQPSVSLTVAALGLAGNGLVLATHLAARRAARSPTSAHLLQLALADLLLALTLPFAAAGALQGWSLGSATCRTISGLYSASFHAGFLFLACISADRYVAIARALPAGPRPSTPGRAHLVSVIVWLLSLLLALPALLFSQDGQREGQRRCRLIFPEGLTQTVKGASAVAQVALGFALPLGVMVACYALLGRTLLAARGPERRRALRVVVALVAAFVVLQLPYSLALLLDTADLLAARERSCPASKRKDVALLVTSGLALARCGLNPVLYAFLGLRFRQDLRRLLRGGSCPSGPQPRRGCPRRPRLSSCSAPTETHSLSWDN
Method: The mouse pre-B cell line 300-19 was stably transfected with the cDNA encoding the human UTR2 receptor (GenBank Acc#NM_018949), and expression was confirmed with a positive calcium signal in response to human urotensin (Sigma Aldrich). Increases in intracellular calcium were monitored using a Flexstation 384 (Molecular Devices, Sunnyvale, Calif.). The cells were batch loaded with the Calcium 3 Assay kit (Molecular Devices) in assay buffer (Hanks Balanced salt solution, HBSS, 20 mM HEPES, pH 7.4, 0.1% BSA) for 1 h at room temperature and labeled cells were dispensed into either black 96 well or 384 well assay plates (Greiner). Calcium mobilization induced by urotensin or compounds was measured in the Flexstation 384 (excitation, […]) for 70 seconds. Agonist activity was determined by direct addition of ligand or peptides, while antagonists were identified by pre-incubation of compounds with cells prior to urotensin addition. A dose response curve (compound concentration versus % maximum response for urotensin) was determined for each active agonist and antagonist and was fitted to a four parameter logistic equation using SoftmaxPro 4.6 (Molecular Devices), from which EC50% and IC50% values were calculated.
Peptides for CCR10 (Marchese et. al. 1994, Homey et. al.) and CXCR3 (Loetscher et. al. 1998, Marchese et. al. 1995) antagonism were assayed in a mouse pre-B cell line 300-19 stably transfected with either human CCR10 or CXCR3 (Marchese et. al. 1995). Antagonism at each receptor was measured with a calcium flux assay in these cells as described above for UTR2 assays using human CCL27 and human CXCL10 (Cole et. al.) for CCR10 and CXCR3 respectively.
as §1

Chain of CXCR6 (O00574 whole entry): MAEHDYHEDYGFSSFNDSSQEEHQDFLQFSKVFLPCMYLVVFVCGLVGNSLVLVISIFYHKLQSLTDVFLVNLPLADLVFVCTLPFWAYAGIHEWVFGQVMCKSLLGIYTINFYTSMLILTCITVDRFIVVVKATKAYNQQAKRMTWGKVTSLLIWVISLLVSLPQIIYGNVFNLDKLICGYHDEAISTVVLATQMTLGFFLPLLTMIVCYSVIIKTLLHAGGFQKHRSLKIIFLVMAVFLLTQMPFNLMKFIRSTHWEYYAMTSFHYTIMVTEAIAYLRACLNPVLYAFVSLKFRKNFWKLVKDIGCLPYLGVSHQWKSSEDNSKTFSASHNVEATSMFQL

Row | IC50 (human CXCR3) | selectivity against CCR4 (CCR4) | selectivity against CCR7 (CCR7) | selectivity against CCR9 (CCR9) | selectivity against CXCR6 (CXCR6) | selectivity against CCR10 (human CCR10) | Compound
1 | 8.6 µM | highly selective | highly selective | highly selective | highly selective | highly selective | N=C(N)NCCC[C@@H]1NC(=O)[C@H](Cc2c[nH]c3ccccc23)NC(=O)[C@H](Cc2ccc(O)cc2)NC(=O)[C@@H]2CCN2C(=O)[C@H]2CCCN2C(=O)CNC1=O [Example 15] (cyclo(YWRG[dP][Aze]))
2 | 8.1 µM | highly selective | highly selective | highly selective | highly selective | highly selective | C[C@@H]1NC(=O)[C@H](CCCNC(=N)N)NC(=O)[C@H](Cc2c[nH]c3ccccc23)NC(=O)[C@H](Cc2ccc(O)cc2)NC(=O)[C@@H]2CCN2C(=O)[C@H]2CCCN2C1=O [Example 16] (cyclo(YWRA[dP][Aze]))
